In US6017958A, “Method of treating malignant tumors with thyroxine analogues having no significant hormonal activity” (Octamer, Inc., priority 1997, dated 2000):
Counter-ions that a name gives are not always drawn.

Columns and labels:
Rana pipiens tadpoles = details: tadpole metamorphosis; cited from earlier work
[1] = system: mouse pituitary thyrotropic tumors / non-malignant mouse pituitary adenoma; details: cited from earlier work
[2] = system: iodine uptake into the thyroid; details: rat, in vivo; cited from earlier work
Earl's L cells = details: Kirshan, 1968; cited from earlier work
tumor = details: parent 6-amino-1,2-benzopyrene; cited from earlier work
HIV = details: parent 6-amino-1,2-benzopyrene; cited from earlier work
pADPRT = details: parent 6-amino-1,2-benzopyrene; cited from earlier work
MDA-MB-231 cells = assay: Flow cytometry / M phase block; assay type: cell-based, human; details: colcemid 0.1 μg/ml, 4 hrs
Method: The MDA-MB-231 cell line was obtained from ATCC (Rockville, Md., USA) and cells were cultured in T-75 flasks at 37° C. in Minimum Essential Medium-alpha, supplemented with 10% FCS. In controls, not receiving DIME, 0.1 μg/ml colcemid was added to cultures for 4 hrs prior to the collection of metaphase-blocked cells and preparation of cell spreads. […] Cells (10^7) were isolated from T-75 trypsinization for 5 min with 0.025% trypsin, and sedimented by centrifugation, resuspended and kept in 10 ml of 75 mM KC1 at 37° C. for 10 min, resedimented, and fixed in 10 ml methanol-acetic acid, with four successive changes of methanol-acetic acid. An aliquot of the final cell suspension (100 μl) was dropped on ethanol-cleaned slides and air-dried.
Cells exposed to different treatments were grown to confluence, trypsinized, and washed with phosphate buffered saline (PBS). For nuclear analysis, cells were fixed in Vindelov Citrate cell buffer: sucrose 250 mM, trisodium citrate. 2H20 40 mM, DMSO 50 ml in 1000 ml solution, pH 7.6. Normal human lymphocytes obtained from blood were used as controls. Each cell sample and control was counted with a hemacytometer and the cell concentration was adjusted to 2×10^6 cells/ml. Two million cells from each cell line in a total volume of 2 ml were washed twice with fresh PBS, treated with 200 μg/ml RNAase at 37° C. for 30 min, and stained with 10 μg/ml propidium iodide for 45 min. Flow cytometric analysis was performed on a FACScan benchtop flow cytometer (Becton-Dickinson, San Jose, Calif., USA) equipped with an air-cooled argon laser tuned to 488 nm. Twenty thousand events were collected as six parameter list mode data for analysis and archival storage. Two light scatter parameters (forward and side), propidium iodide fluorescence measured at 575/26 nm and above 620 nm, and doublet discrimination by fluorescence pulse width and area were acquired at 1024 data channel resolution. Acquisition threshold was set on propidium iodide positive events above channel 100. Gating to exclude small debris, large clumps and cell doublets was done post acquisition.

N[C@@H](Cc1cc(I)c(Oc2cc(I)c(O)c(I)c2)c(I)c1)C(=O)O [thyroxine]
metamorphosis / cell differentiating activity (Rana pipiens tadpoles): induces cell differentiation
growth of mouse pituitary tumor [1]: depress growth of non-malignant mouse pituitary thyrotropic tumors
suppression of iodine uptake by the thyroid [2]: suppresses uptake of iodine by the thyroid

CC[C@]1(O)C[C@@H]2CN(CCc3c([nH]c4ccccc34)[C@@](C(=O)OC)(c3cc4c(cc3OC)N(C)[C@H]3[C@@](O)(C(=O)OC)[C@H](OC(C)=O)[C@]5(CC)C=CCN6CC[C@]43[C@@H]65)C2)C1 [vinblastine sulfate]
metaphase block / multinucleation (Earl's L cells): induces metaphase blocked multinucleated cells

Nc1ccc2oc(=O)ccc2c1I [5-iodo-6-amino-1,2-benzopyrone]
antitumor action versus parent compound (tumor): significantly augmented
antiHIV activity versus parent compound (HIV): significantly augmented
pADPRT inhibitory potency versus parent compound (pADPRT): significantly augmented

CN[C@H]1CCc2cc(OC)c(OC)c(OC)c2-c2ccc(OC)c(=O)cc21 [colcemid, reference compound]
cell cycle block in M phase, comparison of DIME and colcemid (MDA-MB-231 cells): indistinguishable with respect to the cell cycle block in M phase
